According to article PMC6467762 (ACS infectious diseases, 2018):
Entries after “also recorded” stand apart in the source; their conditions may differ. Like-named read-outs stand apart in the source and are kept apart here.

Columns and labels:
PfDHODH = settings: cited from earlier work
P. falciparum sporozoite = settings: cited from earlier work
[1] = single ascending dose (25–1200 mg), humans; cited from earlier work
P. falciparum Dd2 WT = test: microbe, parasite or virus in culture; type: cell-based; settings: Plasmodium falciparum, DD2|DSM265, read-out: DSM265 EC50
[2] = tested on: P. falciparum Dd2 R1BClA (DHODH L531F); test: P. falciparum growth EC50 determination; type: cell-based; settings: Plasmodium falciparum, DD2|DSM265, read-out: DSM265 EC50
[3] = neutral pH; cited from earlier work
P. falciparum malaria = settings: cited from earlier work
[4] = tested on: P. falciparum Dd2 R3B (DHODH E182D); test: P. falciparum growth EC50 determination; type: cell-based; settings: Plasmodium falciparum, DD2|DSM265, read-out: DSM265 EC50
[5] = tested on: P. falciparum Dd2 R2B (DHODH R265G); test: P. falciparum growth EC50 determination; type: cell-based; settings: Plasmodium falciparum, DD2|DSM265, read-out: DSM265 EC50
[6] = tested on: P. falciparum blood stage; settings: humans; cited from earlier work
[7] = tested on: P. falciparum Dd2 BSmut control; test: In vitro 72 h drug susceptibility assay, CRISPR/Cas9 study; type: cell-based; settings: Plasmodium falciparum, DD2|DSM265, read-out: DSM265 EC50
[8] = tested on: P. falciparum Dd2^Dhodh C276Y (CRISPR/Cas9-edited clones); test: as above; type: cell-based; settings: Plasmodium falciparum, DD2|DSM265, read-out: DSM265 EC50
[9] = tested on: P. falciparum Dd2 RIAClB (DHODH C276F); test: P. falciparum growth EC50 determination; type: cell-based; settings: Plasmodium falciparum, DD2|DSM265, read-out: DSM265 EC50
P. falciparum = settings: number of parasites; cited from earlier work
P. falciparum Dd2 parent = test: In vitro 72 h drug susceptibility assay, CRISPR/Cas9 study; type: cell-based; settings: Plasmodium falciparum, DD2|DSM265, read-out: DSM265 EC50
[10] = tested on: P. falciparum Dd2 R10ClB (DHODH G181C); test: P. falciparum growth EC50 determination; type: cell-based; settings: Plasmodium falciparum, DD2|DSM265, read-out: DSM265 EC50
P. vivax = settings: compared with P. falciparum; cited from earlier work
[11] = tested on: DSM265-resistant P. falciparum Dd2 parasites; test: Drug sensitivity of DSM265-resistant Dd2 parasites; type: cell-based, Plasmodium falciparum; settings: DSM265-selected Dd2 mutant lines; values in Table S1 (not available)
[12] = tested on: P. falciparum line from second round of DSM1 selections (increased dhodh copy number); settings: cited from earlier work

Structure (SMILES): Cc1cc(Nc2ccc3ccccc3c2)n2ncnc2n1 [DSM1, 5-methyl-N-(naphthalen-2-yl)-[1,2,4]triazolo[1,5-a]pyrimidin-7-amine]
- Mode of inhibition (PfDHODH): competitive inhibitor of CoQ

Structure (SMILES): Cc1cc(Nc2ccc(S(F)(F)(F)(F)F)cc2)n2nc(C(C)(F)F)nc2n1 [DSM265, 2-(1,1-difluoroethyl)-5-methyl-[N-[4-(pentafluorosulfanyl)phenyl] 1,2,4]triazolo[1,5-a]pyrimidin-7-amine]
- Protection from infection (P. falciparum sporozoite; dosed 3 or 7 days before challenge): partial protection
- Protection from infection (P. falciparum sporozoite; single dose of 400 mg given 1 day prior to challenge): full protection
- Safety [1]: good safety
- EC50 (P. falciparum Dd2 WT): 4.6 ± 1.1 nM
- EC50 [2]: 110 ± 17 nM
- Solubility limit [3]: ~ 30 μM
- Cure rate (P. falciparum malaria; single dose of 250 mg): 60%
- Patients parasite free, extended 28-day endpoint (P. falciparum malaria; single dose of 400 mg): 8/9
- EC50 [4]: 71 ± 13 nM
- EC50 [5]: 150 ± 73 nM
- Efficacy in blood stage human challenge study [6]: demonstrating efficacy
- EC50 [7]: 5.1 ± 0.31 nM
- EC50 [8]: 120 ± 26 nM
- EC50 [9]: 170 ± 55 nM
- Minimum inoculum of resistance for the emergence of DSM265-resistant parasites (P. falciparum): ≥ 10^5
- EC50 (P. falciparum Dd2 parent): 4.8 ± 0.86 nM
- EC50 [10]: 150 ± 51 nM
- Efficacy against P. vivax (P. vivax): lower

Structure (SMILES): C[C@@H]1CC[C@H]2[C@@H](C)C(=O)O[C@@H]3O[C@@]4(C)CC[C@@H]1[C@]32OO4 [artemisinin]
- Sensitivity of DSM265-resistant parasites (EC50 vs parent Dd2) [11]: fully sensitive; also recorded: retained full sensitivity

Structure (SMILES): O=C1C(O)=C([C@H]2CC[C@H](c3ccc(Cl)cc3)CC2)C(=O)c2ccccc21 [atovaquone]
- Sensitivity of DSM1-selected, dhodh-amplified cell line [12]: partial tolerance
- Sensitivity of DSM265-resistant parasites (EC50 vs parent Dd2) [11]: retained full sensitivity; also recorded: fully sensitive
